Literature values in patent US8293900B2, “Acylated spiropiperidine derivatives as melanocortin-4 receptor modulators” (Merck Sharp & Dohme Corp, priority 2005, dated 2012).

How the values were obtained:
[1] = oral route
[2] = injected intramuscularly or subcutaneously, males with psychogenic erectile dysfunction

Question: What does the source list for “Ac-Nle-c[Asp-His-DPhe-Arg-Trp-Lys]-NH2 [MT-II]”?
Answer: absorption into the systemic circulation [1]: not absorbed into the systemic circulation; response rate [2]: 75%
